Measured values: the NIST ThermoML archive (doi:10.1016/j.jct.2017.08.028)
± gives the expanded uncertainty stated by the source.

Assay: molar heat capacity at constant pressure
Conditions: 101.33 kPa, Crystal, Small (less than 1 g) adiabatic calorimetry

O[C@H]1[C@H](O)[C@@H](O)[C@H](O)[C@@H](O)[C@H]1O [cis-1,2,3,5-trans-4,6-cyclohexanehexol]
Conditions	molar heat capacity at constant pressure [J/K/mol]
5 K	0.095 ± 0.009
6 K	0.1967 ± 0.012
7 K	0.3623 ± 0.018
8 K	0.6094 ± 0.027
8.37 K	0.774 ± 0.039
8.4 K	0.78 ± 0.04
8.51 K	0.803 ± 0.04
8.64 K	0.841 ± 0.042
8.77 K	0.885 ± 0.044
8.91 K	0.93 ± 0.045
9 K	0.9596 ± 0.041
9.05 K	0.977 ± 0.047
9.2 K	1.034 ± 0.05
9.34 K	1.096 ± 0.052
9.5 K	1.162 ± 0.055
9.65 K	1.224 ± 0.057
9.81 K	1.296 ± 0.06
9.98 K	1.381 ± 0.063
10 K	1.387 ± 0.058
10.17 K	1.467 ± 0.067
10.39 K	1.577 ± 0.071
10.59 K	1.677 ± 0.075
10.81 K	1.817 ± 0.081
11.05 K	1.945 ± 0.086
11.28 K	2.084 ± 0.092
11.52 K	2.218 ± 0.097
11.76 K	2.363 ± 0.1
12 K	2.535 ± 0.11
12.25 K	2.7 ± 0.12
12.5 K	2.861 ± 0.12
12.75 K	3.034 ± 0.13
13.01 K	3.189 ± 0.14
13.27 K	3.362 ± 0.14
13.53 K	3.524 ± 0.15
13.81 K	3.727 ± 0.16
14.08 K	3.897 ± 0.17
14.35 K	4.078 ± 0.17
14.63 K	4.226 ± 0.18
14.91 K	4.431 ± 0.19
15 K	4.502 ± 0.18
15.19 K	4.618 ± 0.2
15.47 K	4.81 ± 0.2
15.75 K	4.99 ± 0.21
16.04 K	5.208 ± 0.22
16.32 K	5.4 ± 0.23
16.61 K	5.588 ± 0.23
16.9 K	5.795 ± 0.24
17.2 K	5.99 ± 0.25
17.49 K	6.202 ± 0.26
17.78 K	6.394 ± 0.27
18.08 K	6.622 ± 0.28
18.37 K	6.852 ± 0.28
18.67 K	7.06 ± 0.29
18.97 K	7.278 ± 0.3
19.27 K	7.496 ± 0.31
19.57 K	7.721 ± 0.32
19.87 K	7.949 ± 0.33
20 K	8.03 ± 0.32
20.46 K	8.428 ± 0.12
21.33 K	9.104 ± 0.13
22.21 K	9.711 ± 0.13
23.1 K	10.41 ± 0.14
24 K	11.09 ± 0.15
24.9 K	11.77 ± 0.15
25 K	11.83 ± 0.13
25.81 K	12.44 ± 0.16
26.73 K	13.12 ± 0.17
27.66 K	13.84 ± 0.17
28.59 K	14.6 ± 0.18
30 K	15.78 ± 0.17
30.38 K	16.06 ± 0.21
31.42 K	16.86 ± 0.21
32.38 K	17.74 ± 0.22
33.35 K	18.4 ± 0.23
34.31 K	19.3 ± 0.24
35 K	19.73 ± 0.21
35.28 K	20.02 ± 0.25
36.25 K	20.7 ± 0.25
37.23 K	21.47 ± 0.26
38.21 K	22.22 ± 0.27
39.19 K	22.99 ± 0.28
40 K	23.57 ± 0.24
40.18 K	23.66 ± 0.18
41.16 K	24.37 ± 0.19
42.15 K	25.13 ± 0.19
43.15 K	25.81 ± 0.19
44.14 K	26.63 ± 0.2
45 K	27.22 ± 0.13
45.14 K	27.34 ± 0.2
46.17 K	28.07 ± 0.2
47.17 K	28.86 ± 0.21
48.17 K	29.58 ± 0.21
49.18 K	30.39 ± 0.22
50 K	30.99 ± 0.14
50.18 K	31.12 ± 0.22
51.2 K	31.92 ± 0.22
53.79 K	33.97 ± 0.23
54.97 K	34.9 ± 0.24
55.99 K	35.65 ± 0.24
57.01 K	36.49 ± 0.25
58.03 K	37.34 ± 0.25
59.05 K	38.14 ± 0.26
60 K	38.84 ± 0.18
60.07 K	38.87 ± 0.26
61.1 K	39.73 ± 0.26
62.12 K	40.52 ± 0.27
63.15 K	41.35 ± 0.27
64.17 K	42.18 ± 0.28
65.2 K	43.06 ± 0.28
66.23 K	43.91 ± 0.29
67.26 K	44.68 ± 0.29
68.29 K	45.54 ± 0.3
69.32 K	46.48 ± 0.3
70 K	46.97 ± 0.21
70.38 K	47.25 ± 0.3
71.85 K	48.53 ± 0.31
73.87 K	50.14 ± 0.32
75.89 K	51.78 ± 0.33
77.91 K	53.41 ± 0.34
78.79 K	54.18 ± 0.34
79.15 K	54.64 ± 0.34
79.8 K	55.07 ± 0.35
80 K	55.23 ± 0.25
80.92 K	56.01 ± 0.35
81.14 K	56.14 ± 0.35
83.15 K	57.79 ± 0.36
85.15 K	59.59 ± 0.37
87.15 K	61.09 ± 0.38
89.15 K	62.93 ± 0.39
90 K	63.55 ± 0.32
91.14 K	64.62 ± 0.41
93.14 K	66.21 ± 0.42
95.13 K	67.8 ± 0.43
97.12 K	69.47 ± 0.44
99.11 K	71.03 ± 0.45
100 K	71.84 ± 0.35
101.58 K	73.24 ± 0.46
104.56 K	75.65 ± 0.47
107.54 K	78.02 ± 0.48
110 K	80.06 ± 0.38
110.53 K	80.42 ± 0.49
113.53 K	82.88 ± 0.5
116.54 K	85.33 ± 0.51
119.54 K	87.73 ± 0.52
120 K	88.17 ± 0.41
122.54 K	90.16 ± 0.54
125.55 K	92.54 ± 0.55
128.56 K	94.96 ± 0.56
130 K	96.15 ± 0.44
131.58 K	97.38 ± 0.57
134.6 K	99.81 ± 0.58
137.62 K	102.1 ± 0.6
140 K	104 ± 0.5
140.65 K	104.5 ± 0.6
143.68 K	106.9 ± 0.6
146.71 K	109.2 ± 0.6
149.74 K	111.6 ± 0.6
150 K	111.7 ± 0.5
152.78 K	113.9 ± 0.7
155.81 K	116.2 ± 0.7
158.85 K	118.6 ± 0.7
160 K	119.4 ± 0.5
161.89 K	120.9 ± 0.7
164.97 K	123.2 ± 0.7
168.01 K	125.5 ± 0.7
170 K	126.9 ± 0.6
171.06 K	127.7 ± 0.7
174.1 K	130 ± 0.7
177.15 K	132.3 ± 0.7
180 K	134.3 ± 0.6
180.2 K	134.4 ± 0.8
183.25 K	136.7 ± 0.8
186.3 K	138.9 ± 0.8
189.35 K	141.2 ± 0.8
190 K	141.7 ± 0.6
192.4 K	143.5 ± 0.8
195.46 K	145.6 ± 0.8
198.52 K	147.8 ± 0.8
200 K	149.1 ± 0.6
201.57 K	150.1 ± 0.8
204.63 K	152.3 ± 0.8
208.19 K	155.1 ± 0.9
210 K	156.4 ± 0.7
212.26 K	158 ± 0.9
216.41 K	161.2 ± 0.9
220 K	163.7 ± 0.7
220.48 K	164 ± 0.9
224.57 K	167.1 ± 0.9
228.65 K	170.1 ± 0.9
230 K	171.1 ± 0.7
232.72 K	173.2 ± 0.9
236.81 K	176.2 ± 1
240 K	178.5 ± 0.8
240.91 K	179.3 ± 1
245 K	182.3 ± 1
249.09 K	185.2 ± 1
250 K	185.9 ± 0.8
253.18 K	188.2 ± 1
257.27 K	191.3 ± 1
260 K	193.4 ± 0.8
261.36 K	194.4 ± 1
265.46 K	197.6 ± 1.1
269.55 K	200.6 ± 1.1
270 K	200.9 ± 0.9
273.15 K	203.2 ± 0.9
273.64 K	203.7 ± 1.1
277.73 K	206.6 ± 1.1
280 K	208.4 ± 0.9
281.9 K	210 ± 1.1
285.98 K	212.8 ± 1.1
290 K	216 ± 0.9
290.07 K	215.9 ± 1.1
294.15 K	219 ± 1.2
298.15 K	222.1 ± 0.9
298.22 K	222 ± 1.2
300 K	223.5 ± 0.9
303.01 K	226 ± 1.2
308.39 K	230 ± 1.2
310 K	231.1 ± 1
313.76 K	234 ± 1.2
319.12 K	237.9 ± 1.3
320 K	238.7 ± 1
324.46 K	241.9 ± 1.3
329.77 K	246 ± 1.3
330 K	246.2 ± 1
335.05 K	250.1 ± 1.3
340 K	253.7 ± 1.1
340.3 K	253.9 ± 1.3
